Assay results as given in patent US12677825B2, “Composition for protecting islet transplantation” (LG CHEM, LTD., priority 2020, dated 2026).

Key:
[1] = tested on: islets from hIAPP+/− FVB/N mice; experiment: Serum-deprived culture of mouse islets (viability, ROS); format: cell-based; conditions: dose-dependent 0.1 μM to 20 μM
Method: (§1) Purified hIAPP^+/− FVB/N and C57BL/6J mouse were suspended in RPMI 1640 (Gibco, Grand Island, NY, USA) containing 100 IU/mL penicillin and 100 μg/mL streptomycin, and cultured at 37° C. in a fully humidified 5% CO2 atmosphere. Purified NHP islets were suspended in CMRL 1066 medium (Coming Life Sciences, Tewksbury, MA; catalog number 99-663-CV) containing 100 IU/mL penicillin and 100 μg/mL streptomycin, and cultured at 37° C. in a fully humidified 5% CO2 atmosphere. […]
The viability of islets was evaluated using Alamar blue staining according to the manufacturer's protocol (Invitrogen, Grand Island, NY, USA). […] The fluorescence intensity of each well was measured at 570/585 nm (excitation/emission) using a GloMax-Multi Plus Detection System (Promega, Fitchburg, WI, USA), and the values were normalized to a blank.
The oxidative stress levels in hIAPP^+/− mouse islets were determined right after islet isolation and after ex vivo culture of isolated islets. The oxidative stress of the islets was quantified using a fluorescence-based intracellular ROS detection method and by estimating the concentration of malondialdehyde (MDA), a by-product of lipid peroxidation. The formation of total ROS, superoxide ion and nitric oxide was determined using a reactive oxygen species detection kit (ENZ-51011, Enzo Life Sciences, Farmingdale, New York, USA). […]

[2] = tested on: c-Jun N-terminal kinases, HMGB1, IL-1β, IL-6, TNF-α; experiment: Real-time qRT-PCR of c-Jun, HMGB1 and proinflammatory cytokines after islet isolation; format: cell-based, mouse; conditions: after isolation with 20 μM Compound 1, vs non-treated group; FIG. 1F
Method: Mouse islets were isolated from 10- to 12-week-old hIAPP^+/− and C57BL/6 mice as described previously. Briefly, 0.8 mg/mL of collagenase P (Roche, Indianapolis, IN, USA) in Hank's buffered saline solution (HBSS, Sigma-Aldrich, St. Louis, MO, USA) with or without 20 μM Compound 1 were infused into the common bile duct for mouse pancreas digestion. Islets were purified from the digested pancreas using a Ficoll (Biochrom, Berlin, Germany) gradient and washed several times with 1 xHBSS. Isolated islets were cultured while free-floating in 10 mL of RPMI 1640 (Gibco, Grand Island, NY, USA). […]
Harvested islets were treated with 500 μL Trizol (Life Technologies, Grand Island, NY, USA), and then 100 μL of chloroform was added. […] RNA purity was assessed by NanoDrop (Thermo Scientific, Wilmington, DE, USA) and agarose gel electrophoresis. […] Total RNA was reverse transcribed to quantify the expression of genes using the SuperScript™ II reverse transcription system (Life Technologies) according to the manufacturer's protocol.
Real-time qRT-PCR was performed using gene-specific primer pairs (Table 1). […] To quantify the expression level of genes, real-time PCR was performed using a SYBR premix kit (Takara Bio Inc., Tokyo, Japan) and an ABI Prism 7000 (Applied Biosystems, Foster City, CA, USA) according to the manufacturers' protocols.

[3] = tested on: islets from hIAPP+/− mouse; experiment: GSIS assay after serum-deprived culture; format: cell-based; conditions: Compound 1 added to medium during serum-deprived culture; FIG. 6E
Method: as §1
After hand-picking and washing with PBS, islets were seeded on 12-mm diameter insert wells (Merck Millipore, Billerica, MA, USA) with 10 islets per well, and preincubated with 60 mg/dL glucose in Kreb's-Ringer buffer (KRB: 129 mM NaCl, 4.8 mM KCl, 2.5 mM CaCl2, 1.2 mM KH2PO4, 5 mM NaHCO3, 10 mM HEPES, and 0.2% BSA) for 90 mM at 37° C. […] Insulin release into the supernatant by the mouse islets was measured by ELISA (ALPCO, Salem, NH, USA) and a multiplex kit (Merck Millipore), respectively.

[4] = tested on: islets from hIAPP+/− FVB/N mice; experiment: ATP assay of islets isolated with or without Compound 1; format: cell-based, mouse; conditions: 20 μM Compound 1 during islet isolation, vs non-treated group; FIG. 1B
Method: Mouse islets were isolated from 10- to 12-week-old hIAPP^+/− and C57BL/6 mice as described previously. Briefly, 0.8 mg/mL of collagenase P (Roche, Indianapolis, IN, USA) in Hank's buffered saline solution (HBSS, Sigma-Aldrich, St. Louis, MO, USA) with or without 20 μM Compound 1 were infused into the common bile duct for mouse pancreas digestion. Islets were purified from the digested pancreas using a Ficoll (Biochrom, Berlin, Germany) gradient and washed several times with 1 xHBSS. Isolated islets were cultured while free-floating in 10 mL of RPMI 1640 (Gibco, Grand Island, NY, USA). The medium was supplemented with 10% heat-inactivated FBS (fetal bovine serum) at 37° C. and 5% CO2 incubation prior to the ex vivo and in vivo studies.
ATP content of islets was assayed by a luminometric method. The samples were mixed with 200 μL of a commercially available lyophilized ATP monitoring reagent containing firefly luciferase and luciferin (ATP Bioluminescence Assay KIT CLS II, Roche Diagnostics) at first reconstituted in an imidazole buffer (100 mM, pH 7.75). The emitted light was measured in a luminometer (LKB 1250 luminometer). The adenine nucleotide content in samples was determined after correction of the control (no islet or cell) and calculated by reference to ATP standards treated in the same manner as the samples.

O=S1(=O)CCN(Cc2cc(NC3CCOCC3)c3[nH]c(-c4ccccc4)cc3c2)CC1 [Compound 1]
relative cell viability ([1]; FIG. 4D): significantly increased
serum deprivation-induced ROS ([1]; FIG. 4F): decreased
transcriptional expression of c-Jun N-terminal kinases, HMGB1, IL-1β, IL-6 and TNF-α [2]: significantly decreased
stimulation index [3]: significantly increased
levels of ATP [4]: significantly elevated
